Among the test systems are DU-145 prostate; HCT-116 colon; OVCAR-4 ovarian; SK-MEL-28 melanoma; SN12C renal; SNB-19 CNS; TK-10 renal; U251 CNS; UACC-62 melanoma; UO-31 renal.
What all share (assay): NCI-60 cell line screen, 48 h

Values joined by “and” are separate entries in the source; they are usually repeats but may differ in a detail not shown here. Equal entries are not always repeated.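 Method: 48-hour compound exposure of cells in 96-well plates, five concentrations, linear interpolation of endpoints. GI50: concentration for 50% inhibition of growth. TGI denotes the concentration required for complete inhibition of growth.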

GI50 and TGI data for nine compounds are collected here from PubChem BioAssay (NCI).

Regarding `COc1cccc2cc(-c3nc(C4CCC(C(=O)O)CC4)n4ncnc(N)c34)[nH]c12` (centres undefined), the GI50 in the test on DU-145 prostate is 1.22 µM and 1.63 µM; with HCT-116 colon, 0.824 µM and 1.08 µM; in the test with OVCAR-4 ovarian it was 0.155 µM and 0.288 µM; with SK-MEL-28 melanoma, 0.175 µM and 0.169 µM; in the test with SN12C renal it was 0.203 µM and 0.413 µM; in the test with SNB-19 CNS, 1.34 µM and 1.49 µM. The GI50 in the test on TK-10 renal is 0.15 µM and 0.411 µM; with U251 CNS, 0.666 µM and 1.26 µM; in the test with UACC-62 melanoma, 0.18 µM and 0.188 µM; in the test on UO-31 renal, 0.129 µM and 0.21 µM. The TGI with DU-145 prostate is 24.3 µM and > 10 µM; in the test with HCT-116 colon it was greater than 100 µM; with OVCAR-4 ovarian, 2 µM and 3.28 µM; with SK-MEL-28 melanoma it was 1.81 µM and 1.4 µM; in the test with SN12C renal, greater than 100 µM; in the test with SNB-19 CNS, greater than 100 µM. The TGI was 1.63 µM and 6.11 µM in the test on TK-10 renal; greater than 100 µM with U251 CNS; 1.51 µM and 1.83 µM in the test with UACC-62 melanoma; 2.13 µM and 3.35 µM in the test with UO-31 renal.

For the compound `COc1ccc(C(=O)C(CC2C(=O)CC(C)(C)C(C(=O)C(=O)Nc3c(C)cccc3C)C2=O)c2ccc(OC)cc2)cc1` (centres undefined), the TGI in the test with DU-145 prostate, with HCT-116 colon, with OVCAR-4 ovarian, in the test with SK-MEL-28 melanoma, in the test on SN12C renal and in the test with SNB-19 CNS was greater than 100 µM throughout. Also, the TGI in the test with TK-10 renal, with U251 CNS, in the test with UACC-62 melanoma and in the test with UO-31 renal was greater than 100 µM throughout.

On to `O=C(Nc1ccc(O)c(NS(=O)(=O)c2ccc(F)cc2)c1)c1ccc(-c2ccccc2)cc1`, for which the GI50 in the test with DU-145 prostate was 11.7 µM; with HCT-116 colon, 5.12 µM; with OVCAR-4 ovarian, 4.45 µM; in the test with SK-MEL-28 melanoma it was 9.06 µM; with SN12C renal, 9.79 µM; in the test on SNB-19 CNS, 14.4 µM. Further, the GI50 in the test with TK-10 renal is 11.9 µM; in the test with U251 CNS, 9.07 µM; in the test with UACC-62 melanoma, 7.53 µM; with UO-31 renal it was 3.35 µM. The TGI in the test with DU-145 prostate came out at 26.3 µM; with HCT-116 colon, 20.7 µM; with OVCAR-4 ovarian, 25.3 µM; in the test on SK-MEL-28 melanoma, 23.5 µM; with SN12C renal it was 21.7 µM; in the test with SNB-19 CNS it was 34.2 µM. In addition, the TGI in the test on TK-10 renal is 30.3 µM; in the test on U251 CNS it was 26.1 µM; in the test with UACC-62 melanoma, 28.1 µM; with UO-31 renal, greater than 100 µM.

On to `NCC(=O)NC(CO)C(=O)O` (centres undefined), for which the TGI in the test with DU-145 prostate, with HCT-116 colon, in the test with OVCAR-4 ovarian, in the test with SK-MEL-28 melanoma, with SN12C renal and with SNB-19 CNS was greater than 100 µM throughout. Further, the TGI in the test on TK-10 renal, in the test on U251 CNS, in the test on UACC-62 melanoma and in the test on UO-31 renal was greater than 100 µM in each case.

As to `O=C(NCc1cccs1)OC1CC2CCC1C2` (centres undefined), the TGI in the test with DU-145 prostate, with HCT-116 colon, with OVCAR-4 ovarian, in the test on SK-MEL-28 melanoma, with SN12C renal and in the test on SNB-19 CNS was greater than 100 µM in each case. For the same compound, the TGI in the test with TK-10 renal, with U251 CNS, in the test on UACC-62 melanoma and in the test with UO-31 renal was greater than 100 µM throughout.

In the case of `[O]=[W](=[O])([OH])[OH]`, the GI50 in the test on DU-145 prostate, in the test on HCT-116 colon, in the test on OVCAR-4 ovarian, in the test with SK-MEL-28 melanoma, with SN12C renal and in the test on SNB-19 CNS was greater than 100 µM each time. The GI50 with TK-10 renal, in the test on U251 CNS, in the test on UACC-62 melanoma and with UO-31 renal was greater than 100 µM in each case. Also, the TGI with DU-145 prostate, in the test with HCT-116 colon, with OVCAR-4 ovarian, in the test on SK-MEL-28 melanoma, with SN12C renal and in the test with SNB-19 CNS was greater than 100 µM each time. Also, the TGI in the test with TK-10 renal, in the test with U251 CNS, in the test with UACC-62 melanoma and with UO-31 renal was greater than 100 µM in each case.

As for `C=C(CN(C)C)C(=O)c1ccc(OC)cc1`, the TGI in the test on DU-145 prostate worked out at 10.7 µM; in the test on HCT-116 colon, 12.8 µM; in the test with OVCAR-4 ovarian it was 22.1 µM; with SK-MEL-28 melanoma it was 8.63 µM; in the test on SN12C renal it was 7.1 µM; in the test with SNB-19 CNS, 40.3 µM. For the same compound, the TGI with TK-10 renal worked out at 7.88 µM; in the test with U251 CNS, 28.8 µM; in the test on UACC-62 melanoma, 20.4 µM; with UO-31 renal it was 7.92 µM.

For `O=C(O)C1CCCCC1C(=O)Nc1nc2ccccc2[nH]1` (centres undefined), the TGI with DU-145 prostate, in the test with HCT-116 colon, in the test on OVCAR-4 ovarian, in the test on SK-MEL-28 melanoma, in the test with SN12C renal and with SNB-19 CNS was greater than 100 µM in each case. The TGI in the test with TK-10 renal, in the test with U251 CNS, with UACC-62 melanoma and in the test on UO-31 renal was greater than 100 µM each time.

As for `COCO[C@@H]1CC2C=Nc3cc(OCc4ccccc4)c(OC)cc3C(=O)N2C1` (some centres undefined), the GI50 is 0.426 µM with DU-145 prostate; 0.66 µM in the test with HCT-116 colon; 1.32 µM with OVCAR-4 ovarian; 1.6 µM in the test on SK-MEL-28 melanoma; 0.49 µM with SN12C renal; 1.06 µM with SNB-19 CNS. The GI50 with TK-10 renal was 0.869 µM; with U251 CNS, 0.508 µM; with UACC-62 melanoma, 0.463 µM; with UO-31 renal, 0.237 µM. Moreover, the TGI in the test with DU-145 prostate came out at 5.24 µM; in the test with HCT-116 colon, 26 µM; with OVCAR-4 ovarian, 27.5 µM; with SK-MEL-28 melanoma it was 12.6 µM; with SN12C renal it was 2.14 µM; in the test on SNB-19 CNS it was 44.6 µM. Besides, the figures for the TGI with U251 CNS, with UACC-62 melanoma and in the test on UO-31 renal were 14.1 µM, 1.03 µM and 2.14 µM, respectively.
